According to ChEMBL document CHEMBL1132905, “Synthesis of glycosylated polyethylenimine with reduced toxicity and high transfecting efficiency” (Bioorg Med Chem Lett, 2000):

Assay: Lethal dose against HeLa cells, from a human cervix epitheloid carcinoma
Format: toxicity, cell-based
Conditions: read-out: LD50 (the source's name)

SMILES: CCN(CCNC)CCNC[C@H](O)[C@@H](O)[C@H](O[C@@H]1O[C@H](CO)C(O)[C@H](O)[C@H]1O)[C@H](O)CO (stereo partly specified) [GLYCOSYLATED PEI]
- CC50: > 300 µM
